Source: EPA's ToxValDB 9.5
Values joined by “and” are separate entries in the source; they are usually repeats but may differ in a detail not shown here. Equal entries are not always repeated.

Legend:
Rattus norvegicus [1] = system: Rattus norvegicus
Danio rerio = conditions: whole body
Rattus norvegicus [2] = conditions: oral, gavage, Sprague-Dawley
Rattus norvegicus [3] = conditions: uterotrophic; duration: 3 days; injection; subcutaneous; Active
Rattus norvegicus [4] = conditions: oral, Sprague-Dawley
Rattus norvegicus [5] = conditions: repeat dose other; oral
Rattus norvegicus [6] = conditions: oral, gavage
Rattus norvegicus [7] = conditions: for LD50: acute, Wistar; for LOAEL / NOAEL: duration: 19 days, inhalation, Sprague-Dawley
Mus musculus = conditions: for LD50: acute; for LOAEL / NOAEL: gavage; for LOAEL / NOAEL / NOAEL (% diet) / LOAEL (% diet): CD1; for NOAEL (% diet) / LOAEL (% diet): duration: 105 days, drinking water
[8] = reproduction developmental, duration: 4 days, oral, gavage, F, Sprague-Dawley, generation: P0, P0: dam body weight gain
[9] = short-term, duration: 3 days, injection, subcutaneous, F, Sprague-Dawley, uterus: absolute blotted uterine weight in the presence of EE
[10] = short-term, duration: 10 days, oral, gavage, M, BrlHan:WIST, body weight + male accessory sex gland: BC/LA weight (relative)
[11] = short-term, duration: 10 days, oral, gavage, M, BrlHan:WIST, male accessory sex gland: glans penis weight (relative)
[12] = short-term, duration: 10 days, oral, gavage, M, BrlHan:WIST, male accessory sex gland: relative bulbourethral gland weight in the presence of TP + penis: relative penis weight in the absence of TP
[13] = short-term, duration: 14 days, oral, gavage, M, Sprague-Dawley, body weight + serum LH + serum TCHO
[14] = short-term, duration: 14 days, oral, gavage, M, Sprague-Dawley, serum FSH
[15] = short-term, duration: 14 days, oral, gavage, M, Sprague-Dawley, serum T + testis: testis/body weight
[16] = short-term, duration: 28 days, oral, gavage, F, Sprague-Dawley, body weight
[17] = short-term, duration: 28 days, oral, gavage, F, Sprague-Dawley, heart: heart weight + thymus: serum T4
[18] = short-term, duration: 28 days, oral, gavage, M, Sprague-Dawley, adrenal gland: hypertrophy of zona fasciculata + body weight + heart: heart weight + liver: decreased hepatocytic glycogen + liver: liver …
[19] = chronic, duration: 120 days, F, AB-type, E2 + E2:T ratio + gene expression
[20] = chronic, duration: 120 days, M/F, AB-type, fertilization rate + malformation rate + survival rate
[21] = chronic, duration: 120 days, M, AB-type, E2 + E2:T ratio + gene expression + liver: vtg1 expression + T
[22] = developmental, duration: 21 days, M/F, developmental lesion
[23] = short-term, duration: 28 days, F, VTG expression
[24] = short-term, duration: 28 days, F, thymus: Free T3
[25] = reproduction developmental, duration: 55 days, oral, generation: F0
[26] = reproduction developmental, duration: 112 days, oral, generation: F0
[27] = reproduction developmental, duration: 112 days, oral, generation: F1
[28] = reproduction developmental, oral, generation: F1
[29] = reproduction developmental, oral, F

Oc1ccc(C(c2ccc(O)cc2)(C(F)(F)F)C(F)(F)F)cc1 [Bisphenol AF]
LOEL (Rattus norvegicus [1]; [8]): 400 mg/kg-day | NOEL (Rattus norvegicus [1]; [8]): 300 mg/kg-day | NOEL (Rattus norvegicus [1]; short-term, duration: 3 days, injection, subcutaneous, F, Crj:CD, body weight): 100 mg/kg-day | LOEL (Rattus norvegicus [1]; short-term, duration: 3 days, injection, subcutaneous, F, Crj:CD, uterus: uterine dry weight (absolute) + uterus: uterine dry weight (relative)): 8 mg/kg-day | NOEL (Rattus norvegicus [1]; short-term, duration: 3 days, injection, subcutaneous, F, Sprague-Dawley, body weight in the absence of EE + body weight in the presence of EE): 100 mg/kg-day | LOEL (Rattus norvegicus [1]; short-term, duration: 3 days, injection, subcutaneous, F, Sprague-Dawley, uterus: absolute blotted uterine weight in the absence of EE + uterus: relative blotted uterine weight in the absence of EE + uterus: …): 4 mg/kg-day | LOEL (Rattus norvegicus [1]; [9]): 20 mg/kg-day | NOEL (Rattus norvegicus [1]; [9]): 4 mg/kg-day | LOEL (Rattus norvegicus [1]; [10]): 200 mg/kg-day | NOEL (Rattus norvegicus [1]; [10]): 50 mg/kg-day | NOEL (Rattus norvegicus [1]; short-term, duration: 10 days, oral, gavage, M, BrlHan:WIST, male accessory sex gland: Cowper's gland weight (relative) + male accessory sex gland: seminal vesicle weight (relative) + male accessory …): 600 mg/kg-day | LOEL (Rattus norvegicus [1]; [11]): 600 mg/kg-day | NOEL (Rattus norvegicus [1]; [11]): 200 mg/kg-day | NOEL (Rattus norvegicus [1]; short-term, duration: 10 days, oral, gavage, M, BrlHan:WIST, male accessory sex gland: relative bulbourethral gland weight in the absence of TP + male accessory sex gland: relative seminal vesicle …): 600 mg/kg-day | LOEL (Rattus norvegicus [1]; [12]): 600 mg/kg-day | NOEL (Rattus norvegicus [1]; [12]): 200 mg/kg-day | LOEL (Rattus norvegicus [1]; short-term, duration: 10 days, oral, gavage, M, BrlHan:WIST, male accessory sex gland: relative seminal vesicle weight in the presence of TP + penis: relative penis weight in the presence of TP): 50 mg/kg-day | LOEL (Rattus norvegicus [1]; [13]): 50 mg/kg-day | NOEL (Rattus norvegicus [1]; [13]): 10 mg/kg-day | LOEL (Rattus norvegicus [1]; [14]): 10 mg/kg-day | NOEL (Rattus norvegicus [1]; [14]): 2 mg/kg-day | LOEL (Rattus norvegicus [1]; [15]): 200 mg/kg-day | NOEL (Rattus norvegicus [1]; [15]): 50 mg/kg-day | NOEL (Rattus norvegicus [1]; short-term, duration: 14 days, oral, gavage, M, Sprague-Dawley, testis: testis weight): 200 mg/kg-day | NOEL (Rattus norvegicus [1]; short-term, duration: 28 days, oral, gavage, F, Sprague-Dawley, adrenal gland: hypertrophy of zona fasciculata + bone marrow: decreased hematopoiesis + brain: brain weight + liver: decreased hepatocytic …): 100 mg/kg-day | LOEL (Rattus norvegicus [1]; [16]): 30 mg/kg-day | NOEL (Rattus norvegicus [1]; [16]): 10 mg/kg-day | LOEL (Rattus norvegicus [1]; [17]): 100 mg/kg-day | NOEL (Rattus norvegicus [1]; [17]): 30 mg/kg-day | NOEL (Rattus norvegicus [1]; short-term, duration: 28 days, oral, gavage, M, Sprague-Dawley, adrenal gland: adrenals weight + bone marrow: decreased hematopoiesis + brain: brain weight + spleen: decreased extramedullary hematopoiesis…): 100 mg/kg-day | LOEL (Rattus norvegicus [1]; [18]): 100 mg/kg-day | NOEL (Rattus norvegicus [1]; [18]): 30 mg/kg-day | LOEL (Danio rerio; [19]): 0.125 mg/L | NOEL (Danio rerio; [19]): 0.025 mg/L | LOEL (Danio rerio; [20]): 0.125 mg/L | NOEL (Danio rerio; [20]): 0.025 mg/L | LOEL (Danio rerio; chronic, duration: 120 days, M/F, AB-type, hatchability): 0.005 mg/L | LOEL (Danio rerio; [21]): 0.025 mg/L | NOEL (Danio rerio; [21]): 0.005 mg/L | LOEL (Danio rerio; [22]): 1.5 mg/L | NOEL (Danio rerio; [22]): 1 mg/L | LOEL (Danio rerio; short-term, duration: 21 days, M/F, vitellogenin): 0.5 mg/L | LOEL (Danio rerio; [23]): 0.25 mg/L | NOEL (Danio rerio; [23]): 0.05 mg/L | LOEL (Danio rerio; short-term, duration: 28 days, F, condition factor): 0.05 mg/L | LOEL (Danio rerio; [24]): 1 mg/L | NOEL (Danio rerio; [24]): 0.25 mg/L | LOEL (Danio rerio; short-term, duration: 28 days, M, 17beta-estradiol + VTG expression): 1 mg/L | NOEL (Danio rerio; short-term, duration: 28 days, M, VTG expression): 0.25 mg/L | NOEL (Danio rerio; short-term, duration: 28 days, M, body weight + length): 0.05 mg/L | LOEL (Danio rerio; short-term, duration: 28 days, M, body weight + length + T): 0.25 mg/L | NOEL (Rattus norvegicus [2]; subchronic, M, Clinical Observation: Salivation Perioral smudge + Body Weight Changes: Gain decrease + Food Consumption: decrease + Hematology: RBC …): < 30 mg/kg-day | LEL (Rattus norvegicus [3]): 4 mg/kg-day and 8 mg/kg-day and 4.04 mg/kg-day

Cc1cc(N)ccc1N.O=S(=O)(O)O [p-Toluenediamine sulfate]
NOAEL (Rattus norvegicus [4]; subchronic, duration: 13 weeks, gavage, M): 2.5 mg/kg-day

CC1(C)CCCCC1(C)C [Tetramethylcyclohexane]
NOAEL (Rattus norvegicus [4]; subchronic, duration: 90 days, diet, M/F, Whole Body Effects): 3000 mg/kg-day

Clc1cc2oc3c(Cl)c(Cl)c(Cl)cc3c2cc1Cl [2,3,4,7,8-Pentachlorodibenzofuran]
LOAEL (Rattus norvegicus [5]): 0.00016 mg/kg-day | NOAEL (Rattus norvegicus [5]): 1.6e-05 mg/kg-day | LOAEL (Rattus norvegicus [6]; chronic, duration: 105 weeks, F, Harlan Sprague-Dawley, hepatic, endocrine): 6e-06 mg/kg-day | NOAEL (Rattus norvegicus [6]; developmental, duration: 1 days, M/F, Wistar, developmental): 0.0005 mg/kg-day

CCO [Ethanol]
LOAEL (Rattus norvegicus [5]): 319 mg/kg-day | NOAEL (Rattus norvegicus [5]): 31.9 mg/kg-day | LD50 (Rattus norvegicus [7]; injection, Intraperitoneal): 6710 mg/kg and 5100 mg/kg | LD50 (Rattus norvegicus [7]; oral): 10600 mg/kg and 7060 mg/kg | LOAEL (Rattus norvegicus [7]; developmental): > 37700 mg/m3 | NOAEL (Rattus norvegicus [7]; developmental): ≥ 37700 mg/m3 | LOAEL (Rattus norvegicus [7]; reproduction developmental, F): 37700 mg/m3 | NOAEL (Rattus norvegicus [7]; reproduction developmental, F): 30100 mg/m3 | LOAEL (% diet) (Rattus norvegicus [7]; [25]): 5 | NOAEL (% diet) (Rattus norvegicus [7]; [25]): 2 | LOAEL (% diet) (Rattus norvegicus [7]; [26]): ≤ 5 | NOAEL (% diet) (Rattus norvegicus [7]; [26]): < 5 | LOAEL (% diet) (Rattus norvegicus [7]; [27]): > 5 | NOAEL (% diet) (Rattus norvegicus [7]; [27]): ≤ 5 | LD50 (Mus musculus; injection, Intraperitoneal, Swiss-Webster): 9200 mg/kg | LD50 (Mus musculus; oral, NMRI): 8300 mg/kg | LOAEL (Mus musculus; developmental, oral): > 6400 mg/kg-day | NOAEL (Mus musculus; developmental, oral): ≥ 6400 mg/kg-day | NOAEL (% diet) (Mus musculus; reproduction developmental, oral, generation: F0): 15 | LOAEL (% diet) (Mus musculus; [28]): 15 | NOAEL (% diet) (Mus musculus; [28]): 10 | LOAEL (% diet) (Mus musculus; reproduction developmental, oral, generation: F2): > 15 | LOAEL (Mus musculus; [29]): 3600 mg/kg-day | NOAEL (Mus musculus; [29]): 2200 mg/kg-day

CCCCCCCCCC [Decane]
NOAEL (Rattus norvegicus [4]; subchronic, duration: 8 weeks, gavage, M/F): 1000 mg/kg-day

c1ccc(Nc2ccc(Nc3ccccc3)cc2)cc1 [N,N'-Diphenyl-p-phenylenediamine]
NOAEL (Rattus norvegicus [4]; reproduction developmental, diet, F): 0.3 mg/kg-day | NOEL (Rattus norvegicus [2]; short-term, duration: 28 days): 1000 mg/kg-day

[O-2].[Zn+2] [Zinc oxide]
LOAEL (Rattus norvegicus [5]): 320 mg/kg-day | NOAEL (Rattus norvegicus [5]): 160 mg/kg-day
